Assays:
P75NTR = assay: Signal transduction analysis, P75NTR; format: cell-based, human; conditions: NT2 cells
Text: (§1) (2). THPI-244 increases sAPPα by a novel mechanism of upregulating TrkA, a neurotrophic receptor. Therefore, in addition to increasing neuroprotective sAPPα and decreasing toxic Aβ, THPI-244 mediated increased TrkA protein levels are expected to provide neurotrophic support. Following the validation of the effect of THPI-244 in increasing sAPPα levels in CHO cells, NT2 cells, AD fibroblasts and human primary neurons, we were interested in identifying the molecular target of THPI-244 for unraveling the molecular mechanism by which it increases sAPPα which in turn can predict toxicity profile and whether to pursue long-term studies. Increased protein levels of both native and phosphorylated form of TrkA in NT2 cells and mouse brains by THPI-244 validated TrkA as the target.

sAPPα = sAPPα ELISA, NT2 cells stably expressing APP751; format: cell-based, human; conditions: 24 h
Experimental: (5). To confirm the effect of THPI-244 on sAPPα levels in a neuronal cell line and by a tertiary assay, we exposed human Neuron-committed Teratocarcinoma cell line (NT2) stably expressing human APP751 to different concentrations of THPI-244 for 24 h and compared with that of Bryostatin, a classical activator of PKC known to stimulate sAPPα release. […] Levels of sAPPα were measured by ELISA using commercially available kit (cat #27734, IBL-America, Minneapolis, Minn., USA). […] Similar biphasic effect of Bryostatin was confirmed for Aβ42 also, measured again in NT2 stable cells by ELISA (cat #KHB3441, Life Technologies, Grand Island, N.Y., USA). Consistent with sAPPα, THPI-244 decreased Aβ42 levels dose-dependently starting from 50 nM (28%, p<0.05) to 2000 nM (64%, p<0.001) (n=4 independent experiments) (FIG. 1.7). Thus THPI-244 increased non-amyloidogenic processing of APP in NT2 cells.

human primary neurons = assay: Neurite outgrowth, Sholl analysis of dendritic intersections; format: cell-based
Text: (4). The most important property of THPI-244 is its ability to increase neurite outgrowth and dendritic intersections in human primary neurons. Since both TrkA and sAPPα promote neuron growth and provide trophic support, we tested whether treatment of human primary neurons with THPI-244 induces neurite outgrowth. […] Considering an enormous potential for such an excellent results in human neurons, we did systematic analysis by also treating neurons in the presence of TrkA inhibitor to verify if the increased neurite outgrowth is mediated by TrkA receptor. Sholl analysis using ImageJ software of individual neurons (at least 30 per group) immunostained for MAP2 antibody confirmed our initial findings. […] This confirmed that THPI-244 increases TrkA protein levels which has vital role in regulating neuritic outgrowth.

TrkA = TrkA (Homo sapiens, UniProt P04629); assay: TrkA protein level immunoblot, NT2 cells, with or without PKC inhibitor; format: cell-based; parameters: endogenous in cells; host or cells: NT2 cells (stably expressing APP751)
Experimental: (3). THPI-244 increases TrkA receptor levels independent of protein kinase C (PKC). Next to clarify whether increased sAPPα levels depends on increased TrkA activation, NT2 cells were treated with THPI-244 with or without TrkA inhibitor (cat #GW 441756, Tocris Bioscience) at 50 nM final concentration. After 24 h, sAPPα levels were quantified from the conditioned medium by immunoblots. […] We next wanted to address whether increased TrkA protein levels by THPI-244 depends on PKC since PKC activators are well-known to induce sAPPα secretion (Etcheberringaray, R., et al., 2004, PNAS, 101, 11141-11146). NT2 cells were similarly treated with THPI-244 at 100 nM with or without PKC inhibitor (GF 109203, cat #0741, Tocris Bioscience) at 1.0 nM and TrkA protein levels were quantified by immunoblots as shown in FIG. 1.10 (right). […] Thus increased sAPPα level by THPI-244 is through upregulation of TrkA receptor independent of PKC.

PI3Kα = assay: Signal transduction analysis, PI3Kα; format: cell-based, human; conditions: NT2 cells
Text: as §1

TrkA, sequence (P04629 33-796): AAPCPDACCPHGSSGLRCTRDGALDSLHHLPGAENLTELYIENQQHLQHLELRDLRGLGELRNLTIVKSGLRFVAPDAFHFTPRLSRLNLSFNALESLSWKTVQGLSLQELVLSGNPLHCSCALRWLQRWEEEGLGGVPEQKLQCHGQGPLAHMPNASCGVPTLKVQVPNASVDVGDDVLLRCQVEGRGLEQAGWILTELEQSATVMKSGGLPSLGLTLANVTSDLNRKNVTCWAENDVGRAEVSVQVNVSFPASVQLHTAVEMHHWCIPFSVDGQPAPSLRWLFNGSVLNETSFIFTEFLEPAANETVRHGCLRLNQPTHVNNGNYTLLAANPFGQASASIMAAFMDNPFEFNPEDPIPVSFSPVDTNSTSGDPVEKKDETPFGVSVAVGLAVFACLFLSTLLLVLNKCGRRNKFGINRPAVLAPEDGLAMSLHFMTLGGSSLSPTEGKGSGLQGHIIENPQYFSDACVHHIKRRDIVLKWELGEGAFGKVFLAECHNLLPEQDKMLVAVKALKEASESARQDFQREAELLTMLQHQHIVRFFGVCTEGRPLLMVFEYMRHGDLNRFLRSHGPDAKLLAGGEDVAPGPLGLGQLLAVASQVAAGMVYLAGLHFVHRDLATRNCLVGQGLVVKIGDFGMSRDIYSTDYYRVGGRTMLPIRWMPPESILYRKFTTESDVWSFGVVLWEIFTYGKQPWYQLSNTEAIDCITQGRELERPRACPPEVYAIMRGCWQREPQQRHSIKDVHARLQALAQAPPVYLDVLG

O=C(Cc1ccccc1)N[C@H](CNc1nc(CN2CCN(C(=O)Cc3ccccc3)CC2)cs1)c1ccccc1 [THPI-244]
effect on P75NTR (P75NTR): did not affect | lowest concentration with significant increase of sAPPα (sAPPα): 50 nM | number of dendritic intersections (human primary neurons; treated 2DIV to 6DIV): highly significant increase | number of dendritic intersections (human primary neurons; with TrkA inhibitor, 2DIV to 6DIV): almost completely prevented the increased intersections | TrkA protein level (TrkA; THPI-244 100 nM): 197% | TrkA protein level (TrkA; THPI-244 100 nM plus PKC inhibitor GF 109203 1.0 nM): 192% | effect on PI3Kα pathway (PI3Kα): activation of PI3Kα

Source: patent US9994536B2, “Compounds and methods of treating neurological disorders” (TORREY PINES INSTITUTE FOR MOLECULAR STUDIES, priority 2014, dated 2018)
